What all share (assay type): cell-based
One assay concerns the target T1, GLP-1 receptor (Homo sapiens, UniProt P43220).
T1 construct: expressed in transfected cells; host or cells: HEK293
The assay can be described thus: cAMP induction, firefly luciferase reporter assay in HEK293 cells co-transfected with GLP-1 receptor. The text has this: (§1) This example describes an exemplary method of testing the biological activity of the peptides of the present disclosures, which method involves assaying cAMP synthesis.
In general terms: In a reporter assay the amount or activity of a reporter protein is the signal.

The next assay addresses T2, GIP receptor (Homo sapiens, UniProt P48546).
T2 sequence (P48546 22-466): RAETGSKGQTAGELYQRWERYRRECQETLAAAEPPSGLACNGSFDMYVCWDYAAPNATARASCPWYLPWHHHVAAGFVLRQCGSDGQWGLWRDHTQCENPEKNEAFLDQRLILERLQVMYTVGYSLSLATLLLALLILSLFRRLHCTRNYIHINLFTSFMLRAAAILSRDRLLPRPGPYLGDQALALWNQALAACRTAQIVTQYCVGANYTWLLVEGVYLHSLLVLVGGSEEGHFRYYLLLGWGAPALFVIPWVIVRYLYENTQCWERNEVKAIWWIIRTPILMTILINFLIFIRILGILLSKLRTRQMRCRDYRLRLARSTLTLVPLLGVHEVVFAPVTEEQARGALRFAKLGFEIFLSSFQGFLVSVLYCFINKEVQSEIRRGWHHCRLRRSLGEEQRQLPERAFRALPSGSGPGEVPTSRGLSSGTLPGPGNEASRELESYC
The assay can be described thus: cAMP induction, firefly luciferase reporter assay in HEK293 cells co-transfected with GIP receptor.

The next assay has as its target T3, glucagon receptor (Homo sapiens, UniProt P47871).
T3 construct: expressed in transfected cells; host or cells: HEK293
The assay can be described thus: cAMP induction, firefly luciferase reporter assay in HEK293 cells co-transfected with glucagon receptor.
From the text: as §1

The mark [1] stands for this setting: Table 12, Example 19, read-out: EC50 (cAMP, nmole) GLPR.
[2] abbreviates: Table 12, Example 19, read-out: EC50 (cAMP, nmole) GCGR.
The mark [3] stands for this setting: EC50 (cAMP, nmole) GIPR, Table 12, Example 19.
[4] abbreviates: EC50 (nM) at GLP-1 receptor, Table 16, Example 24.
Setting [5] is: EC50 (nM) at GIP receptor, Table 16, Example 24.
Where [6] appears, read: EC50 (nM) at glucagon receptor, Table 16, Example 24.

Molecules are shown by their SMILES. Where two headings read alike, the source gives them in different places. *1 amine or outer side, *2 acyl side, *3 side chain or, on linkers, in order; H or OH if unused. Where a SMILES comes first, the peptide text is derived from it. Side-chain parts run from the residue outwards. [ ]: non-standard residue; d: D form. The star is where a group is joined. X5 = CCCCCCCCCCCCCCCC(=O)N[C@@H](CCC(=O)NCCCC[C@H](NC(=O)CC[C@H](NC(=O)CCCCCCCCCCCCCCC)C(=O)O)C(=O)*)C(=O)O; γGlu = O=C(O)[C@H](CCC(=O)[*:2])N[*:1]; Palmitoyl = CCCCCCCCCCCCCCCC(=O)*; Aib = CC(C)(N)C(=O)O

T1 sequence (P43220 24-463): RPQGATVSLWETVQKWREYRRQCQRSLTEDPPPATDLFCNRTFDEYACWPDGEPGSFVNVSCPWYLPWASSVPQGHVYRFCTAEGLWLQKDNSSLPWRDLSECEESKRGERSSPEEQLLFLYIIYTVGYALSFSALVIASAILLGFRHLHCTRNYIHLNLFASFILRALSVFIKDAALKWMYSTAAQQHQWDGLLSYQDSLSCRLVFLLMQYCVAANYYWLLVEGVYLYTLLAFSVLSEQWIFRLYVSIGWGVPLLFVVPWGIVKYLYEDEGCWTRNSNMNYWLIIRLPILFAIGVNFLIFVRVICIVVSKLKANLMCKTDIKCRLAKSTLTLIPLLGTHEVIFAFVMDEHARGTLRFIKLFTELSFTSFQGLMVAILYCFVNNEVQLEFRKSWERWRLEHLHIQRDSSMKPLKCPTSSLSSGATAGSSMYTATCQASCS
T3 sequence (P47871 26-477): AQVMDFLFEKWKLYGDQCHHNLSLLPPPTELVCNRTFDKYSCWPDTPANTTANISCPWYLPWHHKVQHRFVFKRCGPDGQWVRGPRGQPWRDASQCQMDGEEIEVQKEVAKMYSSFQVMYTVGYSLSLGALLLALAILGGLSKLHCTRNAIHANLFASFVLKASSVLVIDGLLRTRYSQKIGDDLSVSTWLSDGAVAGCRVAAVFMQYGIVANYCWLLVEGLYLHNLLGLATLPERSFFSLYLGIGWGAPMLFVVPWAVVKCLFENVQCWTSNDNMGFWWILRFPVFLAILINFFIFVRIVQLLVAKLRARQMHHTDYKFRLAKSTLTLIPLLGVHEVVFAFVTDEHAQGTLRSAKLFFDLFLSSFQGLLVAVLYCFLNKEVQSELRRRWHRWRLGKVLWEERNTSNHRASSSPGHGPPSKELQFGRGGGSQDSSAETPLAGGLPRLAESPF

On to `CCCCCCCCCCCCCCCC(=O)N[C@@H](CCC(=O)NCCCC[C@H](NC(=O)[C@H](CC(=O)O)NC(=O)[C@H](CC(C)C)NC(=O)[C@H](Cc1ccc(O)cc1)NC(=O)[C@H](CCCCN)NC(=O)[C@H](CO)NC(=O)[C@H](Cc1ccc(O)cc1)NC(=O)[C@H](CC(=O)O)NC(=O)[C@H](CO)NC(=O)[C@@H](NC(=O)[C@H](Cc1ccccc1)NC(=O)[C@@H](NC(=O)CNC(=O)[C@H](CCC(N)=O)NC(=O)C(C)(C)NC(=O)[C@@H](N)Cc1c[nH]cn1)[C@@H](C)O)[C@@H](C)O)C(=O)N[C@@H](CCCNC(=N)N)C(=O)N[C@@H](C)C(=O)N[C@@H](C)C(=O)N[C@@H](CCC(N)=O)C(=O)N[C@@H](CC(=O)O)C(=O)N[C@@H](Cc1ccccc1)C(=O)N[C@H](C(=O)N[C@@H](CCC(N)=O)C(=O)N[C@@H](Cc1c[nH]c2ccccc12)C(=O)N[C@@H](CC(C)C)C(=O)N[C@@H](CC(C)C)C(=O)N[C@@H](CC(=O)O)C(=O)NCC(=O)NCC(=O)N1CCC[C@H]1C(=O)N[C@@H](CO)C(=O)N[C@@H](CO)C(=O)NCC(=O)N[C@@H](C)C(=O)N1CCC[C@H]1C(=O)N1CCC[C@H]1C(=O)N1CCC[C@H]1C(=O)N[C@@H](CO)C(N)=O)C(C)C)C(=O)O` [SEQ ID NO: 153] (H-H[Aib]QGTFTSDYSKYLDK([γGlu-Palmitoyl])RAAQDFVQWLLDGGPSSGAPPPS-NH2; N-terminus assumed), for which the EC50 (commonly the midpoint of the concentration-response curve) on GLP-1 receptor (GLP-1 Receptor EC50, Table 10, Example 16) turned out to be 0.007 nM; at GIP receptor (Table 10, Example 16, read-out: GIP-1 Receptor EC50), 0.276 nM; on glucagon receptor (Glucagon Receptor EC50, Table 10, Example 16), 0.012 nM.
As to `CCCCCCCCCCCCCCCC(=O)N[C@@H](CCC(=O)NCCCC[C@H](NC(=O)CC[C@H](NC(=O)CCCCCCCCCCCCCCC)C(=O)O)C(=O)NCCCC[C@H](NC(=O)[C@H](CC(=O)O)NC(=O)[C@H](CO)NC(=O)[C@@H](NC(=O)[C@H](Cc1ccccc1)NC(=O)[C@@H](NC(=O)CNC(=O)[C@H](CCC(N)=O)NC(=O)C(C)(C)NC(=O)[C@@H](N)Cc1c[nH]cn1)[C@@H](C)O)[C@@H](C)O)C(=O)N[C@@H](CO)C(=O)N[C@@H](CCCCN)C(=O)N[C@@H](Cc1ccc(O)cc1)C(=O)N[C@@H](CC(C)C)C(=O)N[C@@H](CC(=O)O)C(=O)N[C@@H](CCC(=O)O)C(=O)N[C@@H](CCCNC(=N)N)C(=O)N[C@@H](C)C(=O)N[C@@H](C)C(=O)N[C@@H](CCC(N)=O)C(=O)N[C@@H](CC(=O)O)C(=O)N[C@@H](Cc1ccccc1)C(=O)N[C@H](C(=O)N[C@@H](CCC(N)=O)C(=O)N[C@@H](Cc1c[nH]c2ccccc12)C(=O)N[C@@H](CC(C)C)C(=O)N[C@@H](CC(C)C)C(=O)N[C@@H](CC(=O)O)C(=O)NCC(=O)NCC(=O)N1CCC[C@H]1C(=O)N[C@@H](CO)C(=O)N[C@@H](CO)C(=O)NCC(=O)N[C@@H](C)C(=O)N1CCC[C@H]1C(=O)N1CCC[C@H]1C(=O)N1CCC[C@H]1C(=O)N[C@@H](CO)C(N)=O)C(C)C)C(=O)O` [SEQ ID NO: 160], the half-maximal effective concentration (EC50) stood at 0.007 nM at GLP-1 receptor (setting [1]); 0.015 nM at GIP receptor (Table 12, Example 19, read-out: EC50 (cAMP, nmole) GIPR); 0.024 nM at glucagon receptor (setting [2]).
Take `CCCCCCCCCCCCCCCC(=O)N[C@@H](CCC(=O)NCCCC[C@H](NC(=O)CC[C@H](NC(=O)CCCCCCCCCCCCCCC)C(=O)O)C(=O)NCCCC[C@H](NC(=O)[C@H](CO)NC(=O)[C@@H]1CCCN1C(=O)[C@@H]1CCCN1C(=O)[C@@H]1CCCN1C(=O)[C@H](C)NC(=O)CNC(=O)[C@H](CO)NC(=O)[C@H](CO)NC(=O)[C@@H]1CCCN1C(=O)CNC(=O)CNC(=O)[C@H](CC(=O)O)NC(=O)[C@H](CC(C)C)NC(=O)[C@H](CC(C)C)NC(=O)[C@H](Cc1c[nH]c2ccccc12)NC(=O)[C@H](CCC(N)=O)NC(=O)[C@@H](NC(=O)[C@H](Cc1ccccc1)NC(=O)[C@H](CC(=O)O)NC(=O)[C@H](CCC(N)=O)NC(=O)[C@H](C)NC(=O)[C@H](C)NC(=O)[C@H](CCCNC(=N)N)NC(=O)[C@H](CCC(=O)O)NC(=O)[C@H](CC(=O)O)NC(=O)[C@H](CC(C)C)NC(=O)[C@H](Cc1ccc(O)cc1)NC(=O)[C@H](CCCCN)NC(=O)[C@H](CO)NC(=O)[C@H](Cc1ccc(O)cc1)NC(=O)[C@H](CC(=O)O)NC(=O)[C@H](CO)NC(=O)[C@@H](NC(=O)[C@H](Cc1ccccc1)NC(=O)[C@@H](NC(=O)CNC(=O)[C@H](CCC(N)=O)NC(=O)C(C)(C)NC(=O)[C@@H](N)Cc1c[nH]cn1)[C@@H](C)O)[C@@H](C)O)C(C)C)C(N)=O)C(=O)O` [SEQ ID NO: 161] (H-H[Aib]QGTFTSDYSKYLDERAAQDFVQWLLDGGPSSGAPPPSK(X5)-NH2): the EC50 at GLP-1 receptor (setting [1]) came out at 0.007 nM; on GIP receptor (setting [3]), 0.01 nM; on glucagon receptor (setting [2]), 0.011 nM.
Turning to `CCCCCCCCCCCCCCCC(=O)N[C@@H](CCC(=O)NCCCCCCCCCCCC(=O)NCCCC[C@H](NC(=O)[C@H](CC(=O)O)NC(=O)[C@H](CO)NC(=O)[C@@H](NC(=O)[C@H](Cc1ccccc1)NC(=O)[C@@H](NC(=O)CNC(=O)[C@H](CCC(N)=O)NC(=O)C(C)(C)NC(=O)[C@@H](N)Cc1c[nH]cn1)[C@@H](C)O)[C@@H](C)O)C(=O)N[C@@H](CO)C(=O)N[C@@H](CCCCN)C(=O)N[C@@H](Cc1ccc(O)cc1)C(=O)N[C@@H](CC(C)C)C(=O)N[C@@H](CC(=O)O)C(=O)N[C@@H](CCC(=O)O)C(=O)N[C@@H](CCCNC(=N)N)C(=O)N[C@@H](C)C(=O)N[C@@H](C)C(=O)N[C@@H](CCC(N)=O)C(=O)N[C@@H](CC(=O)O)C(=O)N[C@@H](Cc1ccccc1)C(=O)N[C@H](C(=O)N[C@@H](CCC(N)=O)C(=O)N[C@@H](Cc1c[nH]c2ccccc12)C(=O)N[C@@H](CC(C)C)C(=O)N[C@@H](CC(C)C)C(=O)N[C@@H](CC(=O)O)C(=O)NCC(=O)NCC(=O)N1CCC[C@H]1C(=O)N[C@@H](CO)C(=O)N[C@@H](CO)C(=O)NCC(=O)N[C@@H](C)C(=O)N1CCC[C@H]1C(=O)N1CCC[C@H]1C(=O)N1CCC[C@H]1C(=O)N[C@@H](CO)C(N)=O)C(C)C)C(=O)O` [SEQ ID NO: 162], the EC50 on GLP-1 receptor (EC50 (cAMP, nmole) GLPR, Table 12, Example 19) was determined as 0.003 nM; at GIP receptor (setting [3]), 0.033 nM; on glucagon receptor, 0.008 nM.
On to `CCCCCCCCCCCCCCCC(=O)N[C@@H](CCC(=O)NCCCC[C@H](NC(=O)[C@H](CC(=O)O)NC(=O)[C@H](CO)NC(=O)[C@@H](NC(=O)[C@H](Cc1ccccc1)NC(=O)[C@@H](NC(=O)CNC(=O)[C@H](CCC(N)=O)NC(=O)C(C)(C)NC(=O)[C@@H](N)Cc1c[nH]cn1)[C@@H](C)O)[C@@H](C)O)C(=O)N[C@@H](CO)C(=O)N[C@@H](CCCCN)C(=O)N[C@@H](Cc1ccc(O)cc1)C(=O)N[C@@H](CC(C)C)C(=O)N[C@@H](CC(=O)O)C(=O)N[C@@H](CCC(=O)O)C(=O)N[C@@H](CCCNC(=N)N)C(=O)N[C@@H](C)C(=O)N[C@@H](C)C(=O)N[C@@H](CCC(N)=O)C(=O)N[C@@H](CC(=O)O)C(=O)N[C@@H](Cc1ccccc1)C(=O)N[C@H](C(=O)N[C@@H](CCC(N)=O)C(=O)N[C@@H](Cc1c[nH]c2ccccc12)C(=O)N[C@@H](CC(C)C)C(=O)N[C@@H](CC(C)C)C(=O)N[C@@H](CC(=O)O)C(=O)NCC(=O)NCC(=O)N1CCC[C@H]1C(=O)N[C@@H](CO)C(=O)N[C@@H](CO)C(=O)NCC(=O)N[C@@H](C)C(=O)N1CCC[C@H]1C(=O)N1CCC[C@H]1C(=O)N1CCC[C@H]1C(=O)N[C@@H](CO)C(=O)NCC(N)=O)C(C)C)C(=O)O` [SEQ ID NO: 205] (H-H[Aib]QGTFTSDK([γGlu-Palmitoyl])SKYLDERAAQDFVQWLLDGGPSSGAPPPSG-NH2), for which the EC50 at GLP-1 receptor (setting [4]) came out at 0.002 nM; at GIP receptor (setting [5]), 0.004 nM; at glucagon receptor (setting [6]) it was 0.005 nM.
In the same order, the values of `CCCCCCCCCCCCCCCC(=O)N[C@@H](CCC(=O)N[C@@H](CCC(=O)NCCCC[C@H](NC(=O)[C@H](CC(=O)O)NC(=O)[C@H](CO)NC(=O)[C@@H](NC(=O)[C@H](Cc1ccccc1)NC(=O)[C@@H](NC(=O)CNC(=O)[C@H](CCC(N)=O)NC(=O)C(C)(C)NC(=O)[C@@H](N)Cc1c[nH]cn1)[C@@H](C)O)[C@@H](C)O)C(=O)N[C@@H](CO)C(=O)N[C@@H](CCCCN)C(=O)N[C@@H](Cc1ccc(O)cc1)C(=O)N[C@@H](CC(C)C)C(=O)N[C@@H](CC(=O)O)C(=O)N[C@@H](CCC(=O)O)C(=O)N[C@@H](CCCNC(=N)N)C(=O)N[C@@H](C)C(=O)N[C@@H](C)C(=O)N[C@@H](CCC(N)=O)C(=O)N[C@@H](CC(=O)O)C(=O)N[C@@H](Cc1ccccc1)C(=O)N[C@H](C(=O)N[C@@H](CCC(N)=O)C(=O)N[C@@H](Cc1c[nH]c2ccccc12)C(=O)N[C@@H](CC(C)C)C(=O)N[C@@H](CC(C)C)C(=O)N[C@@H](CC(=O)O)C(=O)NCC(=O)NCC(=O)N1CCC[C@H]1C(=O)N[C@@H](CO)C(=O)N[C@@H](CO)C(=O)NCC(=O)N[C@@H](C)C(=O)N1CCC[C@H]1C(=O)N1CCC[C@H]1C(=O)N1CCC[C@H]1C(=O)N[C@@H](CO)C(=O)NCC(N)=O)C(C)C)C(=O)O)C(=O)O` [SEQ ID NO: 207] (H-H[Aib]QGTFTSDK([γGlu-γGlu-Palmitoyl])SKYLDERAAQDFVQWLLDGGPSSGAPPPSG-NH2; N-terminus assumed) are 0.002 nM, 0.015 nM and 0.005 nM.

These data come from patent publication US9587005B2 (priority 2010, dated 2017).
